From ChEMBL document CHEMBL1201862, “PubChem BioAssay data set” (2004)
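Cells were grown in 96-well plates and exposed to each compound for 48 hours at five concentrations; endpoints were interpolated linearly between bracketing concentrations, or set to the highest concentration if not reached. GI50 = concentration required for 50% inhibition of growth.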 Active and inactive are the calls of the source. Cut-off read from the data, not from the text of the source: active = GI50 up to about 1.1 µM and inactive = higher.

Tests used:
Assay in all cases: NCI-60 cell line screen, 48 h
CAKI-1 = system: CAKI-1
A549 = system: A549
NCI-H226 = system: NCI-H226
OVCAR-3 = system: OVCAR-3
U-251 = system: U-251
PC-3 = system: PC-3
BT-549 = system: BT-549
SK-MEL-5 = system: SK-MEL-5
A498 = system: A498
MDA-MB-231 = system: MDA-MB-231
MDA-MB-435 = system: MDA-MB-435
SW-620 = system: SW-620
M14 = system: M14
Hs-578T = system: Hs-578T
HL-60 = system: HL-60
MOLT-4 = system: MOLT-4
SF-295 = system: SF-295
HT-29 = system: HT-29
UACC-257 = system: UACC-257
HOP-62 = system: HOP-62
IGROV-1 = system: IGROV-1
OVCAR-5 = system: OVCAR-5
EKVX = system: EKVX
NCI-H522 = system: NCI-H522
RPMI-8226 = system: RPMI-8226
786-0 = system: 786-0
SK-OV-3 = system: SK-OV-3
Malme-3M = system: Malme-3M
MDA-N = system: MDA-N
OVCAR-8 = system: OVCAR-8
UACC-62 = system: UACC-62
RXF 393 = system: RXF 393
SK-MEL-2 = system: SK-MEL-2
NCI-H23 = system: NCI-H23
COLO 205 = system: COLO 205
DU-145 = system: DU-145
MCF7 = system: MCF7
UO-31 = system: UO-31
SK-MEL-28 = system: SK-MEL-28
SN12C = system: SN12C
NCI/ADR-RES = system: NCI/ADR-RES
ACHN = system: ACHN
SR = system: SR
SNB-75 = system: SNB-75
HCT-116 = system: HCT-116
LOX IMVI = system: LOX IMVI
KM12 = system: KM12
HOP-92 = system: HOP-92
SF-268 = system: SF-268
T47D = system: T47D
TK-10 = system: TK-10

Measured: GI50

CN(C)CCNc1ccc(NCC[N+](C)(C)Cc2ccc([N+](=O)[O-])cc2)c2c1C(=O)c1ccccc1C2=O
inactive: CAKI-1 3.01 µM | A549 23.4 µM | NCI-H226 23.4 µM | OVCAR-3 12 µM | U-251 19.4 µM | PC-3 13.6 µM | BT-549 > 25 µM | SK-MEL-5 12.2 µM | A498 17.5 µM | MDA-MB-231 4.86 µM | MDA-MB-435 > 25 µM | SW-620 13.3 µM | M14 21.6 µM | Hs-578T 19.3 µM | HL-60 4.28 µM | MOLT-4 9.04 µM | SF-295 18.6 µM | HT-29 16.6 µM | UACC-257 8.41 µM | HOP-62 19.8 µM | IGROV-1 14.5 µM | OVCAR-5 > 25 µM | EKVX > 25 µM | NCI-H522 8.73 µM | RPMI-8226 10.8 µM | 786-0 16.2 µM | SK-OV-3 > 25 µM | Malme-3M 22.6 µM | MDA-N 18.3 µM | OVCAR-8 > 25 µM | UACC-62 18.5 µM | RXF 393 > 25 µM | SK-MEL-2 > 25 µM | NCI-H23 20.2 µM | COLO 205 7.28 µM | DU-145 14.1 µM | MCF7 11.9 µM | UO-31 9.51 µM | SK-MEL-28 > 25 µM | SN12C 5.56 µM | NCI/ADR-RES > 25 µM | ACHN 12.1 µM | SR 6.15 µM | SNB-75 > 25 µM | HCT-116 10.9 µM | LOX IMVI 15 µM | KM12 13.8 µM | HOP-92 > 25 µM | SF-268 11.9 µM | T47D > 25 µM | TK-10 > 25 µM
